From patent US20250206738A1, “WRN INHIBITORS” (Nimbus Wadjet, Inc., priority 2023, published 2025)

Assays:
[1] = target: T1, human Werner helicase (WRN, Uniprot Q14191, amino acids 517-1235 with L1074F point mutation; WRN-BV08) (Homo sapiens, UniProt Q14191, L1074F); test: WRN (BV08) ADP-Glo assay; assay type: biochemical; conditions: WRN-BV08 (aa 517-1235, L1074F); read-out: ADP-Glo_hWRN_IC50
T1 construct: Uniprot Q14191, amino acids 517-1235 with L1074F point mutation; 8xHis (C, cleaved yes); TEV cleavage site (ENLYFQG) (C, cleaved yes); made in house; host or cells: Sf9 insect cells (baculovirus, pFastBac)
Method in brief: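 ADP formed by untagged WRN helicase fragment (aa 517-1235, L1074F; 0.15 nM final) on 0.1 nM DNA duplex with […], 60 min at 25 °C after 15 min compound preincubation, pH 7.5 Bicine buffer. Luminescent ADP-Glo readout; IC50 from 4-parameter fit of % inhibition.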

[2] = tested on: p21 induction in HCT 116 cells; test: p21 induction in cells (In-Cell Western, p21/GAPDH ratio); assay type: cell-based; conditions: Homo sapiens, HCT-116, 24 h, 24 h compound incubation, read-out: P21_EC50
Method in brief: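 p21 and GAPDH signals quantified by In-Cell Western after 24 h compound exposure of HCT 116 cells (11 concentrations, 2-fold steps, usual top 10 μM). Percent activation from p21/GAPDH ratio relative to DMSO (low) and internal WRN inhibitor (high) controls; curve fit gave EC50.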

T1 sequence (Q14191 with tags, fused parts or gaps L1074F): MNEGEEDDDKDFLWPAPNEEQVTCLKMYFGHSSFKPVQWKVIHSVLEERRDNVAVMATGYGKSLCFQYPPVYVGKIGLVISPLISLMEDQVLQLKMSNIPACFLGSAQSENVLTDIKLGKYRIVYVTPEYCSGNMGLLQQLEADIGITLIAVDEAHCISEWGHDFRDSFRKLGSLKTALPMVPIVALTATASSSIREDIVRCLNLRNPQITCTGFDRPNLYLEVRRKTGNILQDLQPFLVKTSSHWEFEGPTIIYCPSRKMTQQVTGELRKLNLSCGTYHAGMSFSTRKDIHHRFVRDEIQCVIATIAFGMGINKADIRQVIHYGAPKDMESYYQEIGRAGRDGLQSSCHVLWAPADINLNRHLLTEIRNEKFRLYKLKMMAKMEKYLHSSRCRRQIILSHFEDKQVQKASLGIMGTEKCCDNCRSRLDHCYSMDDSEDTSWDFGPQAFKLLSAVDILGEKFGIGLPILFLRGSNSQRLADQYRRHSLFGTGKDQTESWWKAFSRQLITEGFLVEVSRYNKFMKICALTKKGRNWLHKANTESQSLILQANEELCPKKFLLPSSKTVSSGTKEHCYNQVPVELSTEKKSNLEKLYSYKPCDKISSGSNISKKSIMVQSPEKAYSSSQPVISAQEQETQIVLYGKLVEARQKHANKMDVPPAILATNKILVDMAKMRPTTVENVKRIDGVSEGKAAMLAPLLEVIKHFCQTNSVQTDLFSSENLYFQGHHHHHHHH

CCc1c(N2CCN(C(=O)c3c(O)ccnc3OC)CC2)c(=O)n2nc(C3=CCOCC3)nc2n1CC(=O)NC12CC(C(F)(F)F)(C1)C2 [I-239, 2-(2-(3,6-dihydro-2H-pyran-4-yl)-5-ethyl-6-(4-(4-hydroxy-2-methoxynicotinoyl)piperazin-1-yl)-7-oxo-[1,2,4]triazolo[1,5-a]pyrimidin-4(7H)-yl)-N-(3-(trifluoromethyl)bicyclo[1.1.1]pentan-1-yl)acetamide]
IC50 [1]: 50 to 100 nM | EC50 [2]: > 5000 nM

CCc1c(N2CCN(C(=O)c3ccccc3C(=O)O)[C@H]3CC[C@@H]32)c(=O)c2nn(-c3ccnc(OC)c3)nc2n1CC(=O)NC12CC(C(C)C)(C1)C2 [I-207, 2-((1S,6S)-5-(5-ethyl-4-(2-((3-isopropylbicyclo[1.1.1]pentan-1-yl)amino)-2-oxoethyl)-2-(2-methoxypyridin-4-yl)-7-oxo-4,7-dihydro-2H-[1,2,3]triazolo[4,5-b]pyridin-6-yl)-2,5-diazabicyclo[4.2.0]octane-2-carbonyl)benzoic acid]
IC50 [1]: 5 to 50 nM | EC50 [2]: > 5000 nM
